As a reminder, the Ki is the dissociation constant of the complex between target and ligand, obtained from inhibition or displacement. In general, viability refers to the share of living cells, or the viability signal relative to a control. A word on the EC50: it is the midpoint of the concentration-response curve.

Here are results for 17 compounds from publication PMC8233378, “Acyclic nucleoside phosphonates with adenine nucleobase inhibit Trypanosoma brucei adenine phosphoribosyltransferase in vitro” (Scientific Reports, 2021).

Counter-ions that a name gives are not always drawn. Like-named read-outs stand apart in the source and are kept apart here.

The target of data set [1] is recombinant T. brucei APRT1 (Trypanosoma brucei brucei, UniProt Q57V32). Briefly: Inhibition of recombinant APRT1, continuous spectrophotometric assay (adenine to AMP, 256 nm). It counts as biochemical. As to conditions: recombinant APRT1 280 nM, 1 mM PRib-PP, 60 μM adenine, pH 8.4, 25 °C. The source says:
To test if the newly synthesized ANPs with an adenine as a nucleobase can inhibit the activity of the APRT1 and APRT2, both enzymes were overexpressed in E. coli. […] First, we monitored the APRT1 enzyme activity by a continuous spectrophotometric assay measuring the conversion of adenine to AMP at 256 nm.
The T. brucei aprt1 and aprt2 genes were PCR amplified using oligonucleotides listed in Supplementary File S1, digested with BglII or BamHI and XhoI enzymes and ligated into the pSKB3 expression vector. The pSKB3 vector carries a 6 × His-tag and an AcTEV cleavage site upstream of BamHI restriction site. A BglII or BamHI restriction site was introduced at the 5′ end of the respective genes instead of the initiation methionine codon to maintain the 6 × His-tag and AcTEV recognition motif in frame with the genes. The verified plasmids were transformed into the BL21(DE3) E. coli cells. The 6xhis-tagged recombinant APRT1 protein was purified under native conditions using the ÄKTA prime plus instrument. Elution fractions were analyzed by SDS-PAGE, and those containing APRT1 were pooled and dialyzed against 50 mM Tris–HCl, pH 8.0, 150 mM NaCl, 5 mM MgCl2, 10% glycerol. Bradford protein assay (BioRad) was used to determine protein concentrations. The APRT1 recombinant protein was sent for antibody production to Davids Biotechnology (Regensburg, Germany). Recombinant APRT1 was subsequently used in all in vitro assays.
The methodology was adapted from Ref.[6]. Briefly, the enzyme kinetics of APRT1 were measured by a continuous spectrophotometric assay measuring the conversion of adenine to AMP, at 256 nm. The concentration of enzyme in the assay was 140 nM, the concentration of PRib-PP was kept at 1 mM and the adenine concentration varied from 3.75 to 60 μM. The reaction was carried out using a 1.0 cm path length with a UV Visible spectrometer 1601 (Shimadzu) in the reaction buffer (0.1 M Tris, pH 8.4; 0.11 M MgCl2; at 25 °C). The initial velocity (V0 [µM/min]) was calculated using Beer–Lambert law for different concentration of the purine substrate molecules: A = Δε × L × c where A is the measured absorbance, Δε is constant 2100 M^−1 cm^−1 for adenine, c is a concentration of the product formed in one minute (V0) and L is the length of a cuvette. The Km, Vmax and kcat values were calculated using GraphPad Prism 9 according to Michaelis–Menten kinetics. The Ki values of the inhibitors for APRT1 were determined in the same reaction buffer containing 1 mM PRib-PP, 60 μM adenine and 280 nM APRT1. The concentrations of inhibitors in the assay ranged from 1 nM to 100 μM, depending on the activity of the compound. The reaction was preceded by 1 min incubation of the respective enzyme with the given inhibitor. The Ki values were calculated using non-linear regression in GraphPad Prism 9.

In the next data set the test system is T. brucei BSF cells. Kind of data set: Cell cycle analysis of treated trypanosomes (microscopy, flow cytometry with propidium iodide). The data set is classed as cell-based, Trypanosoma brucei. The source says:
The inhibition of the growth of T. brucei BSF in HMI-11 medium in single micromolar EC50 values (Table 1) was somewhat surprising considering the dispensability of APRT enzymes for these cells. […] To get deeper insights into the in vivo action of ANPs on APRT enzyme we tested their cytotoxicity on wild type cells grown in HMI-11^adenine medium. In this medium, the cells rely on the activity of the APRT enzyme to produce AMP and other […]. […] To corroborate this observation, we also tested cells with induced ectopic expression of V5-tagged APRT1 in both types of media and in the presence of the selected ANPs. […] The changes in the distribution of different cell cycle stages within a population were further assessed by flow cytometry assaying the DNA content by staining the cells with propidium iodide (Fig. 8A).
BFS trypanosomes in log phase were resuspended in HMI-11 medium to a density of 2 × 10^5 cells ml^−1. Test compounds at concentrations ranging from 1 to 16 µM were added to the cell suspension followed by 12 h incubation at 37 °C. The cell cycle analysis was performed as described previously. Briefly, approximately 2 × 10^6 cells were washed with PBS and fixed in 1 ml of 70% methanol in 1 × PBS and stored at 4 °C overnight. Following a PBS wash, samples were incubated with 10 µg/ml propidium iodide and 9.6 µg/ml of RNaseA at 37 °C for 45 min. Samples were analyzed on a FACS Canto II (BD) collecting 10,000 gated events.
On the technique in general: A flow cytometer gives signals particle by particle.

Data set [2] can be described thus: Cytotoxicity of the prodrug in human cells (CellTiter-Glo 2.0), NHDF. It counts as cell-based. Particulars: human, normal human dermal fibroblasts (NHDF), NHDF. How it is done: (§1) Compound cytotoxicity was evaluated in Hela S3 cancer cells and non-tumor human dermal fibroblasts (NHDF). All cell lines were obtained from ATCC (Manassas, VA, USA). The cytotoxicity was assayed using CellTiter-Glo® 2.0 detection reagent (Promega, Madison, USA) according to the manufacturer’s protocol.

A further data set relates to T. brucei BSF427. Kind of data set: Alamar Blue assay, BSF427 cells. The data set is classed as cell-based. As to conditions: Trypanosoma brucei, read-out: T. brucei BSF EC50. How it is done:
The bloodstream form (BSF) T. b. brucei Lister 427 and single marker (SM) strains were cultivated in HMI-11 medium and 10% FBS at 37 °C in a humidified atmosphere at 5% CO2[26]. HMI-11 medium containing dialyzed 10% FBS and only one defined source of the purine base, adenine, was used for selected experiments (50 μM, HMI-11^adenine). The SM cell line constitutively expressing ectopic T7 RNA polymerase and tetracycline repressor was used for the tetracycline-inducible expression of dsRNA and V5-tagged proteins. To generate SKD APRT1 and DKD APRT1/2 RNAi cell lines, the 524 bp and 537 bp fragments of the aprt-I (Tb927.7.1780) and aprt-II (Tb927.7.1790) open reading frames, respectively, were PCR amplified from T. brucei BSF427 genomic DNA with the oligonucleotides (Supplementary File S1). The APRT1 fragment was cloned into the p2T7-TABlue, while the APRT2 fragment was cloned into, into the p2T7-177 plasmid. The p2T7-TABlue plasmid containing the APRT1 fragment was electroporated to SM cells which were subjected to selection with hygromycin (5 µg/ml). Verified SKD APRT1 cell line was then transfected with Not-1 linearized p2T7-177 plasmid containing the APRT2 fragment and the resulting DKD APRT1/2 cell line was selected with phleomycin (2.5 µg/ml). For the inducible expression of V5-tagged APRT1 andAPRT2, the coding sequences of the respective genes were PCR amplified using oligonucleotides listed in Supporting Information S1. The obtained PCR fragments were cloned into the pT7_N-term-V5 vector[6] using BglII or BamHI and XbaI restriction enzymes. Plasmids were then transfected to SM BSF cells. The resulting transfectants were established in medium containing puromycin (0.1 µg/ml). The induction of the dsRNA or tagged proteins was triggered by the addition of 1 µg/ml of tetracycline into the medium.
An Alamar Blue Assay was performed in a 96-well plate format to screen for sensitivity of T. brucei BSF cells to ANPs as previously published. The EC50 values were calculated using non-linear regression in GraphPad Prism 9.
(In general: The colour change of resazurin is a common sign of viable cells or microbes.)

A short description of data set [3]: Cytotoxicity of the prodrug in human cells (CellTiter-Glo 2.0), HeLa S3. The data set is classed as cell-based. Particulars: human, HeLa S3 cells; HeLa S3, 10 µM; read-out: Cytotoxicity of prodrug: HeLaS3 viability. On the procedure:
as §1

Sequence of recombinant T. brucei APRT1 (Q57V32 entry or part of it): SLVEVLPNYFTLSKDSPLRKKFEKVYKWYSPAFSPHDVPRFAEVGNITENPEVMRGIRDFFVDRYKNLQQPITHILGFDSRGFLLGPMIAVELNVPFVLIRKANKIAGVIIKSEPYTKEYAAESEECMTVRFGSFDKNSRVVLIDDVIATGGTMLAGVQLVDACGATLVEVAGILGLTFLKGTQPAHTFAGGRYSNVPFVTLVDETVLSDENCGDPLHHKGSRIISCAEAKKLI

In the case of `Nc1ncnc2c1ncn2CCCSCP(=O)(O)O` [3a, 5-(Adenin-9-yl)-2-thiapentanephosphonic acid, disodium salt], the Ki in data set [1] (read-out: APRT1 Ki) turned out to be 10.1 ± 1.1 µM.
Consider `Nc1ncnc2c1ncn2CCSCCP(=O)(O)O` [3b, 5-(Adenin-9-yl)-3-thiapentanephosphonic acid, disodium salt], for which, in data set [1] (read-out: APRT1 Ki), the Ki is more than 30 µM.
The same measure, in the same setting: then `Nc1ncnc2c1ncn2CCC[S+]([O-])CP(=O)(O)O` (centres unmarked) [4a, 5-(Adenin-9-yl)-2-oxo-2-thiapentanephosphonic acid, disodium salt], with more than 30 µM.
Take `Nc1ncnc2c1ncn2CC[S+]([O-])CCP(=O)(O)O` (centres unmarked) [4b, Sodium 5-(adenin-9-yl)-3-oxo-3-thiapentanephosphonate]: the Ki in data set [1] (APRT1 Ki) was more than 30 µM.
In the case of `Nc1ncnc2c1ncn2CCN(CCNCCO)CCP(=O)(O)O` [9a, 9-[(N-(2-((2-Hydroxyethyl)amino)ethyl)-N-(2-phosphonoethyl))-2-aminoethyl]adenine triethylammonium salt], the Ki in data set [1] (read-out: APRT1 Ki) amounted to 4.92 ± 0.43 µM.
Regarding `N#CCCN(CCn1cnc2c(N)ncnc21)CCP(=O)(O)O` [9b, 9-[(N-(2-Cyanoethyl)-N-(2-phosphonoethyl))-2-aminoethyl]adenine], in data set [1] (read-out: APRT1 Ki), the Ki was more than 30 µM.
On the same count and under the same terms, for `Nc1ncnc2c1ncn2CCN(CCP(=O)(O)O)CCP(=O)(O)O` [9c, 9-[(N,N-(Bis-2-phosphonoethyl))-2-aminoethyl]adenine] the value was more than 30 µM; for `Nc1ncnc2c1ncn2CCN(CCOCP(=O)(O)O)CCP(=O)(O)O` [9d, 9-[(N-Phosphonoethyl-N-phosphonomethoxyethyl)-2-aminoethyl]adenine], 3.88 ± 0.29 µM.
As to `Nc1ncnc2c1ncn2CCN(CCCC(=O)O)CCP(=O)(O)O` [9f, 9-[(N-(Carboxypropyl)-N-(2-phosphonoethyl))-2-aminoethyl]adenine], in data set [1] (read-out: APRT1 Ki), the Ki was more than 30 µM.
Turning to `Nc1ncnc2c1ncn2CCN(CCOCCP(=O)(O)O)CCP(=O)(O)O` [9g, 9-[(N-Phosphonoethyl-N-phosphonoethoxyethyl)-2-aminoethyl]adenine], the Ki in data set [1] (read-out: APRT1 Ki) came to 3.07 ± 0.25 µM.
`CC(C)OC(=O)[C@H](Cc1ccccc1)NP(=O)(CSCCCn1cnc2c(N)ncnc21)N[C@@H](Cc1ccccc1)C(=O)OC(C)C` [24a, 9-(5-(Bis((S-1-isopropoxycarbonyl-2-phenylethyl)amino)phosphoryl)-4-thiapentyl)adenine]: the “direct microscopic observation of exposed T. brucei cells” value with T. brucei BSF cells was “problems in the cell cycle”. Also, the “distribution of cell cycle stages by flow cytometry (DNA content)” value in the data set with T. brucei BSF cells (1 to 16 µM, 12 h, propidium iodide) is listed as “increase in the number of cells in G1-phase”. Also, the viability at 10 µM came out at 89% in data set [2] and 99% in data set [3]. Further, the EC50 was determined as 6.36 µM in the data set with T. brucei BSF427 (BSF427, HMI-11^adenine medium (50 μM adenine as sole purine)) and 6.16 µM in the data set with T. brucei BSF427 (BSF427, HMI-11 medium).
Regarding `Nc1ncnc2c1ncn2CCN(CCN(CCP(=O)(O)O)CCP(=O)(O)O)CCP(=O)(O)O` [compound 17, (2-((2-((2-(Adenine-9-yl)ethyl)(2-phosphonoethyl)amino)ethyl)(2-phosphonoethyl)amino)ethyl)phosphonic acid], in data set [1] (read-out: APRT1 Ki), the Ki was 21.3 ± 2.1 µM.
`Nc1ncnc2c1ncn2CC(COCCP(=O)(O)O)OCCP(=O)(O)O` (centres unmarked) [compound 20, 4-(Adenin-9-ylmethyl)-3,6-dioxaoctane-1,8-diphosphonic acid]: the Ki in data set [1] (read-out: APRT1 Ki) came to 27.7 ± 4.5 µM.
As for `Nc1ncnc2c1ncn2CCOC(CO)CP(=O)(O)O` (centres unmarked) [compound 21, 9-[2-(3-Hydroxy-1-phosphonopropan-2-yloxy)ethyl]adenine], the Ki in data set [1] (read-out: APRT1 Ki) was more than 30 µM.
Same read-out and setting: for `Nc1ncnc2c1ncn2CC(COCP(=O)(O)O)COCP(=O)(O)O` [compound 22, {[(2-[(Adenin-9-yl)methyl]propane-1,3-diyl)bis(oxy)]bis(methylene)}diphosphonic acid] the value was 5.15 ± 0.69 µM.
As for `CCOC(=O)[C@H](Cc1ccccc1)NP(=O)(COCC(COCP(=O)(N[C@@H](Cc1ccccc1)C(=O)OCC)N[C@@H](Cc1ccccc1)C(=O)OCC)Cn1cnc2c(N)ncnc21)N[C@@H](Cc1ccccc1)C(=O)OCC` [compound 25, Tetra-(L-phenylalanineethyl ester) prodrug of {[(2-[(adenin-9-yl)methyl]propane-1,3-diyl)bis(oxy)]bis(methylene)}diphosphonic acid], the viability at 10 µM in data set [2] was 90%; in data set [3], 99%. Besides, the EC50 in the data set with T. brucei BSF427 (BSF427, HMI-11 medium) came out at 3.7 µM.
For `CCOC(=O)[C@H](Cc1ccccc1)NP(=O)(CCOCC(Cn1cnc2c(N)ncnc21)OCCP(=O)(N[C@@H](Cc1ccccc1)C(=O)OCC)N[C@@H](Cc1ccccc1)C(=O)OCC)N[C@@H](Cc1ccccc1)C(=O)OCC` (stereo partly drawn) [compound 26, Tetra-(L-phenylalanineethyl ester) prodrug of (2-[3-(adenin-9-yl)-2-(2-bis(hydroxyphosphoryl)ethoxy)propoxy]ethyl}phosphonic acid], the viability at 10 µM in data set [2] was determined as 88%; in data set [3], 100%. In addition, in the data set with T. brucei BSF427 (BSF427, HMI-11 medium), the EC50 came to 1.55 µM.
